Assay results taken from the supplement of paper PMC13380429.

Key:
Settings in all cases: 72 h
[1] = system: Calu-3; test: drug sensitivity score (DSS) for viability; higher = more toxic; extreme values may be limits of the assay
[2] = system: Caco-2; test: as above
[3] = system: HepG2; test: as above
[4] = system: U2OS; test: as above
[5] = system: Calu-3; test: cell viability relative to DMSO; higher = less toxic
[6] = system: Caco-2; test: as above
[7] = system: HepG2; test: as above
[8] = system: U2OS; test: as above
[9] = system: Calu-3; test: relative viability EC50 (midpoint between 100% and the lowest measured viability); higher = less toxic
[10] = system: Caco-2; test: as above
[11] = system: HepG2; test: as above
[12] = system: U2OS; test: as above
[13] = system: Vero E6; test: drug sensitivity score (DSS) for viability; higher = more toxic; extreme values may be limits of the assay
[14] = system: Vero E6; test: cell viability relative to DMSO; higher = less toxic
[15] = system: Vero E6; test: relative viability EC50 (midpoint between 100% and the lowest measured viability); higher = less toxic

| Structure (SMILES) | drug sensitivity score [1] | drug sensitivity score [2] | drug sensitivity score [3] | drug sensitivity score [4] | cell viability ([5]; 1 nM) [%] | cell viability ([5]; 10 nM) [%] | cell viability ([5]; 100 nM) [%] | cell viability ([5]; 1000 nM) [%] | cell viability ([5]; 10000 nM) [%] | cell viability ([6]; 1 nM) [%] | cell viability ([6]; 10 nM) [%] | cell viability ([6]; 100 nM) [%] | cell viability ([6]; 1000 nM) [%] | cell viability ([6]; 10000 nM) [%] | cell viability ([7]; 1 nM) [%] | cell viability ([7]; 10 nM) [%] | cell viability ([7]; 100 nM) [%] | cell viability ([7]; 1000 nM) [%] | cell viability ([7]; 10000 nM) [%] | cell viability ([8]; 1 nM) [%] | cell viability ([8]; 10 nM) [%] | cell viability ([8]; 100 nM) [%] | cell viability ([8]; 1000 nM) [%] | cell viability ([8]; 10000 nM) [%] | relative viability EC50 [9] [µM] | relative viability EC50 [10] [µM] | relative viability EC50 [11] [µM] | relative viability EC50 [12] [µM] | drug sensitivity score [13] | cell viability ([14]; 1 nM) [%] | cell viability ([14]; 10 nM) [%] | cell viability ([14]; 100 nM) [%] | cell viability ([14]; 1000 nM) [%] | cell viability ([14]; 10000 nM) [%] | relative viability EC50 [15] [µM] |
| --- | --- | --- | --- | --- | --- | --- | --- | --- | --- | --- | --- | --- | --- | --- | --- | --- | --- | --- | --- | --- | --- | --- | --- | --- | --- | --- | --- | --- | --- | --- | --- | --- | --- | --- | --- |
| O=C(CNC(=O)c1ccc(Cl)cc1)NO [benurestat] | 0 | 0 | 0 | 0 | 107 | 104 | 103 | 103 | 99.3 | 98.5 | 98.5 | 97.4 | 98.5 | 98.1 | 110 | 108 | 104 | 101 | 95.8 | 96.8 | 104 | 97.5 | 104 | 95.1 | > 10 | > 10 | > 10 | > 10 |  |  |  |  |  |  |  |
| N[C@@H]1CCCCN(c2c(F)cc3c(=O)c(C(=O)O)cn(C4CC4)c3c2Cl)C1 [besifloxacin] | 0 | 0 | 0 | 0 | 100 | 97.3 | 100 | 103 | 107 | 97.1 | 98.4 | 100 | 104 | 93.5 | 102 | 92.2 | 108 | 113 | 97.8 | 98.2 | 99.5 | 95.6 | 102 | 98.9 | > 10 | > 10 | > 10 | > 10 |  |  |  |  |  |  |  |
| CCCCCCNC(=O)n1cc(F)c(=O)[nH]c1=O [carmofur] | 0.4 | 2.2 | 6.3 | 2.4 | 95.4 | 93.1 | 90 | 94.8 | 83.7 | 107 | 98.5 | 95 | 97.8 | 61.7 | 100 | 98.3 | 101 | 76.4 | 42.5 | 98.7 | 103 | 98.5 | 99.5 | 54 | > 10 |  | 1.16 |  | 2.4 | 106 | 102 | 102 | 97.4 | 58.8 |  |
| COCCOC(=O)C1=C(C)NC(C)=C(C(=O)OC/C=C/c2ccccc2)C1c1cccc([N+](=O)[O-])c1 (configuration not stated) [cilnidipine] | 0 | 2.5 | 0 | 0.1 | 99.2 | 105 | 93.3 | 105 | 95.2 | 91.1 | 94.3 | 94 | 92.9 | 67.7 | 118 | 104 | 114 | 104 | 91.8 | 99.1 | 103 | 98.8 | 104 | 85 | > 10 |  | > 10 | > 10 |  |  |  |  |  |  |  |
| Clc1ccc(COC(Cn2ccnc2)c2ccc(Cl)cc2Cl)cc1 (configuration not stated) [econazole] | 0 | 2.5 | 1.5 | 0 | 104 | 103 | 103 | 102 | 98.5 | 94.5 | 90.1 | 97 | 90.9 | 68.6 | 100 | 98.1 | 102 | 97.3 | 72.6 | 102 | 97.8 | 95.6 | 95.3 | 90.7 | > 10 |  |  | > 10 | 0 | 104 | 108 | 106 | 102 | 94.7 | > 10 |
| C[n+]1ccc(C(=O)NCc2ccccc2)cc1 [enisamium-iodide] | 0 | 0 | 2.8 | 0 | 96.5 | 100 | 91 | 108 | 102 | 98.8 | 103 | 87.7 | 94.5 | 99.1 | 88.7 | 96.3 | 99.7 | 79.7 | 81.7 | 104 | 103 | 98.9 | 103 | 103 | > 10 | > 10 | > 10 | > 10 |  |  |  |  |  |  |  |
| CC(C)C[C@H](NC(=O)CNC(=O)[C@H](Cc1ccc(O)cc1)NC(=O)[C@H](CO)NC(=O)[C@H](Cc1c[nH]c2ccccc12)NC(=O)[C@H](Cc1cnc[nH]1)NC(=O)[C@@H]1CCC(=O)N1)C(=O)N[C@@H](CCCNC(=N)N)C(=O)N1CCC[C@H]1C(=O)NCC(N)=O [gonadorelin] | 0 | 0 | 0 | 0 | 94.7 | 98.8 | 92.2 | 86.9 | 97.5 | 106 | 96 | 100 | 99.7 | 100 | 108 | 86.8 | 102 | 101 | 96.2 | 97.4 | 100 | 98.4 | 98 | 97.7 | > 10 | > 10 | > 10 | > 10 |  |  |  |  |  |  |  |
| c1nc(CC2CCNCC2)c[nH]1 [immepip] | 0 | 0 | 0 | 0 | 96.7 | 91.6 | 111 | 111 | 99.9 | 113 | 101 | 98.6 | 98.8 | 102 | 108 | 107 | 103 | 111 | 95.7 | 98.1 | 99.8 | 97.2 | 93.3 | 97.9 | > 10 | > 10 | > 10 | > 10 |  |  |  |  |  |  |  |
